Results taken from ChEMBL document CHEMBL4507256 (2021).

What was measured:
[1] = test system: Mast/stem cell growth factor receptor Kit (Homo sapiens), P10721 [D816V]; details: Compound concentration 1000.0 nM
[2] = test system: Tyrosine-protein kinase ABL1 (Homo sapiens), P00519 [F317L]; details: Compound concentration 1000.0 nM
[3] = target: GABA-A receptor; anion channel (Rattus norvegicus) (UniProt O09028+P15431+P18506+P18508+P19969+P20236+P23574+P23576+P28471+P28473+P30191+P62813+P63079+P63138+Q91ZM7+Q9ES14); details: Compound concentration 10.0 uM
[4] = test system: Epidermal growth factor receptor (Homo sapiens), P00533 [L861Q]; details: Compound concentration 1000.0 nM
[5] = target: Serine/threonine-protein kinase RIO1 (Homo sapiens) (UniProt Q9BRS2); details: Compound concentration 1000.0 nM
[6] = target: RAC-gamma serine/threonine-protein kinase (Homo sapiens) (UniProt Q9Y243); details: Compound concentration 1000.0 nM
Sequence of RAC-gamma serine/threonine-protein kinase (Homo sapiens) (Q9Y243 whole entry, canonical isoform): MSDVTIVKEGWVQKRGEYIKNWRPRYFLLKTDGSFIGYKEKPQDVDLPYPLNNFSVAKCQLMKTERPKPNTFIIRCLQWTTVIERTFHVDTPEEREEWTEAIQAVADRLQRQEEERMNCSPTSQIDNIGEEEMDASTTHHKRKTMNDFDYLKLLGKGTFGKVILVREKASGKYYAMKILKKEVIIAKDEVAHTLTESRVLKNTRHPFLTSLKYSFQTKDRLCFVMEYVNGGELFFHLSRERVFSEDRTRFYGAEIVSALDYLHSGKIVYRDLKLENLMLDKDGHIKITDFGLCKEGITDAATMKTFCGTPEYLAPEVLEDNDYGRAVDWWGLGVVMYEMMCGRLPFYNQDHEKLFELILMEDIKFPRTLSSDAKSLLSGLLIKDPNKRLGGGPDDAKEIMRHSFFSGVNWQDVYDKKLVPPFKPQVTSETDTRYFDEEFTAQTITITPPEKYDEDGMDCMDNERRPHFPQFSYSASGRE

[7] = target: Casein kinase I isoform alpha (Homo sapiens) (UniProt P48729); details: Compound concentration 1000.0 nM
[8] = test system: Hepatocyte growth factor receptor (Homo sapiens), P08581 [Y1235D]; details: Compound concentration 1000.0 nM
[9] = target: Serine/threonine-protein kinase SBK1 (Homo sapiens) (UniProt Q52WX2); details: Compound concentration 1000.0 nM
[10] = target: Receptor-type tyrosine-protein kinase FLT3 (Homo sapiens) (UniProt P36888); details: Compound concentration 1000.0 nM
[11] = target: Dual specificity mitogen-activated protein kinase kinase 7 (Homo sapiens) (UniProt O14733); details: Compound concentration 1000.0 nM
Sequence of Dual specificity mitogen-activated protein kinase kinase 7 (Homo sapiens) (O14733 whole entry): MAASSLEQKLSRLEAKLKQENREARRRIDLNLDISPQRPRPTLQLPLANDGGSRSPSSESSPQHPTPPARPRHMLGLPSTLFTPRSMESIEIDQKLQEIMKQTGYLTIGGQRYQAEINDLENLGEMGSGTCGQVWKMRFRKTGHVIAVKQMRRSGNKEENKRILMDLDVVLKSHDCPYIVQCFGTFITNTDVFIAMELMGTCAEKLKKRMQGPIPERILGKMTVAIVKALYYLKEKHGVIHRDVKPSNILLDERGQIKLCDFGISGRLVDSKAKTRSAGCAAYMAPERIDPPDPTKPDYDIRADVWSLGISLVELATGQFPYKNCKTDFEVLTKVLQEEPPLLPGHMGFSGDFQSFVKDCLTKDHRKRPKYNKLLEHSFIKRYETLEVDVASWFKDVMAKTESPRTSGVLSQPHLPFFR

[12] = target: Mitogen-activated protein kinase 4 (Homo sapiens) (UniProt P31152); details: Compound concentration 1000.0 nM
[13] = target: Serine/threonine-protein kinase TAO1 (Homo sapiens) (UniProt Q7L7X3); details: Compound concentration 1000.0 nM
[14] = target: Ankyrin repeat and protein kinase domain-containing protein 1 (Homo sapiens) (UniProt Q8NFD2); details: Compound concentration 1000.0 nM
Sequence of Ankyrin repeat and protein kinase domain-containing protein 1 (Homo sapiens) (Q8NFD2 whole entry, the tested form may be a part): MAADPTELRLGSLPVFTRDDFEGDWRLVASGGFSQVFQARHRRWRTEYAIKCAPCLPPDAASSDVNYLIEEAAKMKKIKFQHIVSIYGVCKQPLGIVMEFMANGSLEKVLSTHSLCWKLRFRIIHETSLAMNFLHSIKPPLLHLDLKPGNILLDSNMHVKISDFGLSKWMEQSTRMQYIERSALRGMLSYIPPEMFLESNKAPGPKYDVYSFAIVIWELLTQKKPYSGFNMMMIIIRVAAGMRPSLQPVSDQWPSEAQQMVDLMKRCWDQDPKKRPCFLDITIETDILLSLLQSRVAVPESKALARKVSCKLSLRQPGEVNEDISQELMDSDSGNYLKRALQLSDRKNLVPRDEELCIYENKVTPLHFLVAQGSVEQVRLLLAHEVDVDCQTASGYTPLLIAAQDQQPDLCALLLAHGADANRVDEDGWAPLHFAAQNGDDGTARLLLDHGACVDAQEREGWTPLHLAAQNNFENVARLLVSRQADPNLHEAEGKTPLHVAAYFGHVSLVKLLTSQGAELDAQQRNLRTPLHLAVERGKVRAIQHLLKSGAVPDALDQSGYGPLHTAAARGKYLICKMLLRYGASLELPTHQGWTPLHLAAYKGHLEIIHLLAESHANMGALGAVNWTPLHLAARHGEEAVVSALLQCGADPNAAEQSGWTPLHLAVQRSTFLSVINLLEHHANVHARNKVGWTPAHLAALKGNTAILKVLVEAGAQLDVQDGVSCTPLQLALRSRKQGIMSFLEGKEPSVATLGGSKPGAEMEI

[15] = target: Cyclin-dependent kinase 17 (Homo sapiens) (UniProt Q00537); details: Compound concentration 1000.0 nM
[16] = target: Serine/threonine-protein kinase RIO3 (Homo sapiens) (UniProt O14730); details: Compound concentration 1000.0 nM
[17] = target: Ribosomal protein S6 kinase alpha-1 (Homo sapiens) (UniProt Q15418); details: Compound concentration 1000.0 nM
[18] = target: Ribosomal protein S6 kinase beta-1 (Homo sapiens) (UniProt P23443); details: Compound concentration 1000.0 nM
[19] = target: ALK tyrosine kinase receptor (Homo sapiens) (UniProt Q9UM73); details: Compound concentration 1000.0 nM
[20] = target: Mitogen-activated protein kinase kinase kinase 7 (Homo sapiens) (UniProt O43318); details: Compound concentration 1000.0 nM
[21] = target: Receptor-interacting serine/threonine-protein kinase 1 (Homo sapiens) (UniProt Q13546); details: Compound concentration 1000.0 nM
[22] = target: Serine/threonine-protein kinase 32A (Homo sapiens) (UniProt Q8WU08); details: Compound concentration 1000.0 nM
[23] = target: Myosin light chain kinase, smooth muscle (Homo sapiens) (UniProt Q15746); details: Compound concentration 1000.0 nM
[24] = target: Cyclin-dependent kinase 13 (Homo sapiens) (UniProt Q14004); details: Compound concentration 1000.0 nM
[25] = target: Mitogen-activated protein kinase kinase kinase 14 (Homo sapiens) (UniProt Q99558); details: Compound concentration 1000.0 nM
[26] = target: Cyclin-dependent kinase 3 (Homo sapiens) (UniProt Q00526); details: Compound concentration 1000.0 nM
Sequence of Cyclin-dependent kinase 3 (Homo sapiens) (Q00526 whole entry, looked up): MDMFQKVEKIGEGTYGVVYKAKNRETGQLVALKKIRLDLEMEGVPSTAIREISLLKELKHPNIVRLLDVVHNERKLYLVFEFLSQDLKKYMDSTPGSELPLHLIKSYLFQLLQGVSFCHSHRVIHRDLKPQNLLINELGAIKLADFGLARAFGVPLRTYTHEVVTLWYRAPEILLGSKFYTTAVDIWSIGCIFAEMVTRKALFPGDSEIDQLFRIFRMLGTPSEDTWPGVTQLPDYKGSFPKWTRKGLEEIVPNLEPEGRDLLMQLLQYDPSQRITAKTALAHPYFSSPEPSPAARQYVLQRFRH

[27] = test system: Receptor-type tyrosine-protein kinase FLT3 (Homo sapiens), P36888 [D835Y]; details: Compound concentration 1000.0 nM
[28] = target: High affinity nerve growth factor receptor (Homo sapiens) (UniProt P04629); details: Compound concentration 1000.0 nM
[29] = target: Discoidin domain-containing receptor 2 (Homo sapiens) (UniProt Q16832); details: Compound concentration 1000.0 nM
[30] = target: Phosphatidylinositol 4-phosphate 5-kinase type-1 gamma (Homo sapiens) (UniProt O60331); details: Compound concentration 1000.0 nM
[31] = target: Mast/stem cell growth factor receptor Kit (Homo sapiens) (UniProt P10721); details: Compound concentration 1000.0 nM
Sequence of Mast/stem cell growth factor receptor Kit (Homo sapiens) (P10721 whole entry): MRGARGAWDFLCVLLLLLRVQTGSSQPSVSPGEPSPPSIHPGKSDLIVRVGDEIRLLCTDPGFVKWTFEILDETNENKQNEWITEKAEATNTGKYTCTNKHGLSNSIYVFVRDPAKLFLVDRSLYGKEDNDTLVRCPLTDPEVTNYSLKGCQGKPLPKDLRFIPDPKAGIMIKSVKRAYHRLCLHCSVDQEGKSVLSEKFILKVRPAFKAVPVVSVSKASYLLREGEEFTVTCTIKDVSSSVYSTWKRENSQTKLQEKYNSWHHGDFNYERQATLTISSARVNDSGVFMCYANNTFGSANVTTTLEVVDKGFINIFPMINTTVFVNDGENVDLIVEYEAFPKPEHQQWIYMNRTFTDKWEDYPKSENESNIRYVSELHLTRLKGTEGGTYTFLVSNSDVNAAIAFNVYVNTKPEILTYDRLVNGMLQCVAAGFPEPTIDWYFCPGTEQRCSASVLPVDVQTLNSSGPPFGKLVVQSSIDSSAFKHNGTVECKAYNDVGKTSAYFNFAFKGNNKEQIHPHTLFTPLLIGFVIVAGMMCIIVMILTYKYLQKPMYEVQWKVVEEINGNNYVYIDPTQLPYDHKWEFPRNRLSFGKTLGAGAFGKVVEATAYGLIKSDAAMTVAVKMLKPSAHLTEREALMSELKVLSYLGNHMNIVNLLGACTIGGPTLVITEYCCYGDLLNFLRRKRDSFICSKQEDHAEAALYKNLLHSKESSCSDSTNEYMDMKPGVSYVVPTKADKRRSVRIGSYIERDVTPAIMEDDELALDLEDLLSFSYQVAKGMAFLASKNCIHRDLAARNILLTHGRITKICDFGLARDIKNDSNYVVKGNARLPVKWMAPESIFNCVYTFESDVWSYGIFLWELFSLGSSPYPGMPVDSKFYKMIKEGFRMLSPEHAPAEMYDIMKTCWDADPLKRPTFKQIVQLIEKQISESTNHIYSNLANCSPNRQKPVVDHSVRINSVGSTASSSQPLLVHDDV

[32] = target: RAF proto-oncogene serine/threonine-protein kinase (Homo sapiens) (UniProt P04049); details: Compound concentration 1000.0 nM
Sequence of RAF proto-oncogene serine/threonine-protein kinase (Homo sapiens) (P04049 whole entry): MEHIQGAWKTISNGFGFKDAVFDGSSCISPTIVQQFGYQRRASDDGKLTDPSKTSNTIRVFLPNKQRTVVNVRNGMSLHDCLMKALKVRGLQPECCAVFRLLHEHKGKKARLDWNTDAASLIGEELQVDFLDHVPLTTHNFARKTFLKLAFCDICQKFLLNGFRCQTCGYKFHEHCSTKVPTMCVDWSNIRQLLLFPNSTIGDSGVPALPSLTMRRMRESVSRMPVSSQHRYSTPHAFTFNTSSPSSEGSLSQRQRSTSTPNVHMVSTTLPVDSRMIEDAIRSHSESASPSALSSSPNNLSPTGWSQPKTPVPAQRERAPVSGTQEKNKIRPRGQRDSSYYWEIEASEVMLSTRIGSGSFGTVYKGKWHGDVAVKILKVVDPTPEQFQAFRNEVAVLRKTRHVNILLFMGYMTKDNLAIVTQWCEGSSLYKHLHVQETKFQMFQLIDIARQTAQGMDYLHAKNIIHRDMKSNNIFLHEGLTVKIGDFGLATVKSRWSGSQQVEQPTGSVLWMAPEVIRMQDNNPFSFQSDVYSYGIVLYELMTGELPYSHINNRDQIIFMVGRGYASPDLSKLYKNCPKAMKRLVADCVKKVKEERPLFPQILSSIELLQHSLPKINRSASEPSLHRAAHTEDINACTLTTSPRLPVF

[33] = target: Rho-associated protein kinase 1 (Homo sapiens) (UniProt Q13464); details: Compound concentration 1000.0 nM
[34] = test system: Epidermal growth factor receptor (Homo sapiens), P00533 [UNDEFINED MUTATION]; details: Compound concentration 1000.0 nM
[35] = target: Phosphatidylinositol 4-kinase beta (Homo sapiens) (UniProt Q9UBF8); details: Compound concentration 1000.0 nM
[36] = target: 5-hydroxytryptamine receptor 2B (Homo sapiens) (UniProt P41595); details: Compound concentration 10.0 uM
Sequence of 5-hydroxytryptamine receptor 2B (Homo sapiens) (P41595 whole entry): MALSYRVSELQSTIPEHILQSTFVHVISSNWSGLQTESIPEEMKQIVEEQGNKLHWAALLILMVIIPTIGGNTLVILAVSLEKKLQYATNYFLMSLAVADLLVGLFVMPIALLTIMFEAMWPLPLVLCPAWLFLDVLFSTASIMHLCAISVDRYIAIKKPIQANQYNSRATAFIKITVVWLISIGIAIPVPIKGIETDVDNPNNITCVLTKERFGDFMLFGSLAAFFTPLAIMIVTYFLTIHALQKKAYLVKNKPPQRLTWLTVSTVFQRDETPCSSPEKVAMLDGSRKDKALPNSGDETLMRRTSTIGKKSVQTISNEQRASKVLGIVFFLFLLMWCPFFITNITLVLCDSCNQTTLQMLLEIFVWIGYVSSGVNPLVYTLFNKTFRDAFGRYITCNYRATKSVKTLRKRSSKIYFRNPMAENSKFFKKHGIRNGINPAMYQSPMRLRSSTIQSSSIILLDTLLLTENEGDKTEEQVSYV

[37] = target: Aurora kinase A (Homo sapiens) (UniProt O14965); details: Compound concentration 1000.0 nM
[38] = target: Serine/threonine-protein kinase PLK1 (Homo sapiens) (UniProt P53350); details: Compound concentration 1000.0 nM
Sequence of Serine/threonine-protein kinase PLK1 (Homo sapiens) (P53350 whole entry): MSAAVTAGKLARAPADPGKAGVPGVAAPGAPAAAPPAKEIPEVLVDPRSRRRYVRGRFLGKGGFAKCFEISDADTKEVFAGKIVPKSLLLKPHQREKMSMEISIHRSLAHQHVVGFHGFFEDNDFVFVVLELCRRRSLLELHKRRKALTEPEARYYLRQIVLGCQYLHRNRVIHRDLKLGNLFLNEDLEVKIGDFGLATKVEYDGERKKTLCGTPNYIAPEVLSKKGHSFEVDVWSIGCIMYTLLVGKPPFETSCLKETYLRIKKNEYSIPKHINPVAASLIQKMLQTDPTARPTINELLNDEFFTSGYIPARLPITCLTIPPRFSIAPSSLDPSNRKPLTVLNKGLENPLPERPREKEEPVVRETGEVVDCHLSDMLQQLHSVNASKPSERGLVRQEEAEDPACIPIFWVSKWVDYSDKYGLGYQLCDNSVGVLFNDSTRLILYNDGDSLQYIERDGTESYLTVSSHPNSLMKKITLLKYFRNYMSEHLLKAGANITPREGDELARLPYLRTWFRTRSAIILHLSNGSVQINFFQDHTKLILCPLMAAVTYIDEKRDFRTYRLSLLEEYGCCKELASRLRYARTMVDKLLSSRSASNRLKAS

[39] = target: Serine/threonine-protein kinase WNK2 (Homo sapiens) (UniProt Q9Y3S1); details: Compound concentration 1000.0 nM
[40] = target: Mitogen-activated protein kinase kinase kinase 15 (Homo sapiens) (UniProt Q6ZN16); details: Compound concentration 1000.0 nM
[41] = target: Vascular endothelial growth factor receptor 1 (Homo sapiens) (UniProt P17948); details: Compound concentration 1000.0 nM
[42] = target: Bone morphogenetic protein receptor type-2 (Homo sapiens) (UniProt Q13873); details: Compound concentration 1000.0 nM
[43] = target: BMP-2-inducible protein kinase (Homo sapiens) (UniProt Q9NSY1); details: Compound concentration 1000.0 nM

Sequence of Mast/stem cell growth factor receptor Kit (Homo sapiens), P10721 [D816V] (P10721 whole entry D816V): as the sequence (P10721 whole entry) above, with D816V counted along it

CCC(=N\O)/C(C)=C/c1ccc(F)cc1 [A-079]
inactive: residual activity [1] 87% | residual activity [2] 81% | inhibition [3] 14.7% | residual activity [4] 60% | residual activity [5] 80% | residual activity [6] 83% | residual activity [7] 74% | residual activity [8] 85% | residual activity [9] 100% | residual activity [10] 86% | residual activity [11] 79% | residual activity [12] 75% | residual activity [13] 100% | residual activity [14] 79% | residual activity [15] 90% | residual activity [16] 78% | residual activity [17] 100% | residual activity [18] 66% | residual activity [19] 87% | residual activity [20] 81% | residual activity [21] 82% | residual activity [22] 100% | residual activity [23] 100% | residual activity [24] 95% | residual activity [25] 84% | residual activity [26] 84% | residual activity [27] 91% | residual activity [28] 83% | residual activity [29] 91% | residual activity [30] 100% | residual activity [31] 80% | residual activity [32] 91% | residual activity [33] 100% | residual activity [34] 67% | residual activity [35] 50% | inhibition [36] 24.7% | residual activity [37] 100% | residual activity [38] 93% | residual activity [39] 80% | residual activity [40] 100% | residual activity [41] 87% | residual activity [42] 81% | residual activity [43] 80%

CCC(=N\O)/C(C)=C/c1ccc(F)c(C)c1 [A-226]
inactive: residual activity [1] 94% | residual activity [2] 100% | inhibition [3] 16.7% | residual activity [4] 68% | residual activity [5] 100% | residual activity [6] 89% | residual activity [7] 100% | residual activity [8] 100% | residual activity [9] 100% | residual activity [10] 100% | residual activity [11] 100% | residual activity [12] 96% | residual activity [13] 100% | residual activity [14] 100% | residual activity [15] 99% | residual activity [16] 100% | residual activity [17] 96% | residual activity [18] 100% | residual activity [19] 97% | residual activity [20] 99% | residual activity [21] 100% | residual activity [22] 100% | residual activity [23] 93% | residual activity [24] 100% | residual activity [25] 100% | residual activity [26] 100% | residual activity [27] 100% | residual activity [28] 100% | residual activity [29] 100% | residual activity [30] 78% | residual activity [31] 100% | residual activity [32] 99% | residual activity [33] 100% | residual activity [34] 65% | residual activity [35] 100% | inhibition [36] 43.8% | residual activity [37] 82% | residual activity [38] 82% | residual activity [39] 100% | residual activity [40] 69% | residual activity [41] 100% | residual activity [42] 100% | residual activity [43] 100%
